Measurements reported in patent publication US9981975B2, “Pyrrolotriazine compounds as tam inhibitors” (Incyte Corporation, priority 2016, dated 2018).
pIC50: −log10 of the molar value.

Assays:
Format in all cases: biochemical
phosphor-Axl = phosphor-Axl (Homo sapiens (Human), UniProt P30530); assay: TAM Enzymatic Assay (HTRF), Axl; details: recombinant autophosphorylated Axl, 60 min, room temperature
c-Mer = c-Mer (Homo sapiens (Human), UniProt Q12866); assay: TAM Enzymatic Assay (HTRF), Mer; details: 60 min, room temperature
Chain of c-Mer (Q12866 21-999): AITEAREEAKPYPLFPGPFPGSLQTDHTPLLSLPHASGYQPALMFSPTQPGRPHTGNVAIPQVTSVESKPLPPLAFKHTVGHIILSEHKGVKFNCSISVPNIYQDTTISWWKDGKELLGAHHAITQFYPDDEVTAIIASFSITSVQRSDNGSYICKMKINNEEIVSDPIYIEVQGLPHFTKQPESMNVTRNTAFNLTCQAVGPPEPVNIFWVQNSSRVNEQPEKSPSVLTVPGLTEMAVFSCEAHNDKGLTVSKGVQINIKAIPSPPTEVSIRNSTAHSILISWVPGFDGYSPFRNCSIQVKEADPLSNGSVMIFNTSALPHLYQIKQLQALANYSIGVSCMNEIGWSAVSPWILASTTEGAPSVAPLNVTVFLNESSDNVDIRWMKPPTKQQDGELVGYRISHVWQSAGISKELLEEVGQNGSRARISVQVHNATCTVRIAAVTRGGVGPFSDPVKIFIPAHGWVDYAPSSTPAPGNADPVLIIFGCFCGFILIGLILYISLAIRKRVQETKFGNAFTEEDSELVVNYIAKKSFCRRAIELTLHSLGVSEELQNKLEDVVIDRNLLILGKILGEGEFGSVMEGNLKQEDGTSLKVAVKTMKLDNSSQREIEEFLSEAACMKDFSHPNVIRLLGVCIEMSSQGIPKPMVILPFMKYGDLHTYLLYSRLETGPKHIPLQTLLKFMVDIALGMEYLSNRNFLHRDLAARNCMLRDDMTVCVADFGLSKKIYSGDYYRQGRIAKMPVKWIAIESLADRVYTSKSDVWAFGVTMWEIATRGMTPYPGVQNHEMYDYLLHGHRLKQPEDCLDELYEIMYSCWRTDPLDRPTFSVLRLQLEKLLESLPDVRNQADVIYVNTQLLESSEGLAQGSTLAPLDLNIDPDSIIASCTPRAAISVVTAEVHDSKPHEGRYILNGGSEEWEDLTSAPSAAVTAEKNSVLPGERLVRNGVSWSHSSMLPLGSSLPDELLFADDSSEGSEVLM
Outline: (§1)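 HTRF kinase assay in 50 mM HEPES pH 7.5, 10 mM MgCl2, 1 mM EGTA, 0.01% NP-40, 2 mM DTT; compound in DMSO pre-dispensed, enzyme added, reaction started with substrate, 60 min at room temperature in the dark.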

Tyro3 = Tyro3 (Homo sapiens (Human), UniProt Q06418); assay: TAM Enzymatic Assay (HTRF), Tyro3; details: Tyro3, 60 min, room temperature
Chain of Tyro3 (Q06418 41-890): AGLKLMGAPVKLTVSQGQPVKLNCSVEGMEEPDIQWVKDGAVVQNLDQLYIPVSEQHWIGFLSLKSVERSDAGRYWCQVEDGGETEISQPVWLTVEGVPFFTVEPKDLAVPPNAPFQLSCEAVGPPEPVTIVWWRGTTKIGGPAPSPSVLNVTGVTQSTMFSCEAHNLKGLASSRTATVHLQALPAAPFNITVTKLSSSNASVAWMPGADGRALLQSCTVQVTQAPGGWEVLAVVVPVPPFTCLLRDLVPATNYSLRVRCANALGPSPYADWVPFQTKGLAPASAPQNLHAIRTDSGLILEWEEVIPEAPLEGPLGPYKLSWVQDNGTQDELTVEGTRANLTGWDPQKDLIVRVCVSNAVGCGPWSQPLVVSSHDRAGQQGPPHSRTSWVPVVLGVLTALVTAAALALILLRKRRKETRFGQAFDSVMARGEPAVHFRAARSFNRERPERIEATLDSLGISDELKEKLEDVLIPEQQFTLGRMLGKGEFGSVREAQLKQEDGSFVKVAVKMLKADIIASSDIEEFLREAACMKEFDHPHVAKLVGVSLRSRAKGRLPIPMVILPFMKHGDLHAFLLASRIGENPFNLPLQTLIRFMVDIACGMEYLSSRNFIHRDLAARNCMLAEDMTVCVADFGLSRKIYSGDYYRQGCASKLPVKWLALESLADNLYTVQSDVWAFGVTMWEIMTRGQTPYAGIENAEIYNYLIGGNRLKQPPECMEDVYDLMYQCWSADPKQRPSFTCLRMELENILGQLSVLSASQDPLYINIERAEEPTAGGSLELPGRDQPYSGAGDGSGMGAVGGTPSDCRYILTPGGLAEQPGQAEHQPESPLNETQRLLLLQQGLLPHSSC
Outline: as §1

Chain of phosphor-Axl (P30530 26-894): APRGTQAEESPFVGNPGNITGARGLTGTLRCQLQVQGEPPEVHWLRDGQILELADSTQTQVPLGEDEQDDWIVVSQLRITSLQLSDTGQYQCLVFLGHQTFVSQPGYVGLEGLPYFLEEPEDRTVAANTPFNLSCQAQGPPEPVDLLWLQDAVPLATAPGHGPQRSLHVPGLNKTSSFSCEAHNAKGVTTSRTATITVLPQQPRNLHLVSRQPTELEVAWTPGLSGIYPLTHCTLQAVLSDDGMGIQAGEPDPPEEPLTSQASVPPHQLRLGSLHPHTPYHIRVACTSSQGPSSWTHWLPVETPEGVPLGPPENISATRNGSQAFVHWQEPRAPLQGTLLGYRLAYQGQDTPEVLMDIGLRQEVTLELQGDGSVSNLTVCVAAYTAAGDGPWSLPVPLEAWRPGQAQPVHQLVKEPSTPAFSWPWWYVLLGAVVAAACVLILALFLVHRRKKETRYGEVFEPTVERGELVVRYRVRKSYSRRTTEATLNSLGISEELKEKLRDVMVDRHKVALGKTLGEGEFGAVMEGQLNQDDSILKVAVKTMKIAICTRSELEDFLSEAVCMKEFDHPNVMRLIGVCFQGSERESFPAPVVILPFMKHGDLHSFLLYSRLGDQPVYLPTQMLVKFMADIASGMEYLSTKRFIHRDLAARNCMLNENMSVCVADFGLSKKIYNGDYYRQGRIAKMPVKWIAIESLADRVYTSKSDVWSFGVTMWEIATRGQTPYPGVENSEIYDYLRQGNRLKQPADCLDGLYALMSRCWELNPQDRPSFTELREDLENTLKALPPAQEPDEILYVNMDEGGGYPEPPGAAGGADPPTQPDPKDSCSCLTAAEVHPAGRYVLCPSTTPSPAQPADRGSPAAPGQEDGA

Compound	pIC50 (phosphor-Axl)	pIC50 (c-Mer)	pIC50 (Tyro3)
Cc1c(Br)cc(C(=O)Nc2ccc(-c3cc(C4CCN(C(=O)C(C)C)CC4)n4ncnc(N)c34)cc2)c(=O)n1-c1cccnc1 [Example 130, N-(4-(4-Amino-7-(1-isobutyrylpiperidin-4-yl)pyrrolo[2,1-f][1,2,4]triazin-5-yl)phenyl)-5-bromo-6-methyl-2-oxo-2H-[1,3′-bipyridine]-3-carboxamide]	≥ 8.30	≥ 8.30	< 7.00
Cc1c(Cl)cc(C(=O)Nc2ccc(-c3cc(C4CCN(C(=O)C(C)C)CC4)n4ncnc(N)c34)cc2)c(=O)n1-c1cccnc1 [Example 131, N-(4-(4-amino-7-(1-isobutyrylpiperidin-4-yl)pyrrolo[2,1-f][1,2,4]triazin-5-yl)phenyl)-5-chloro-6-methyl-2-oxo-2H-[1,3′-bipyridine]-3-carboxamide]	≥ 8.30	≥ 8.30	< 7.00
Cc1cc(C(=O)Nc2ccc(-c3cc(C4CCN(C(=O)C(C)C)CC4)n4ncnc(N)c34)cc2)c(=O)n(-c2cccnc2)c1C [Example 132, N-(4-(4-Amino-7-(1-isobutyrylpiperidin-4-yl)pyrrolo[2,1-f][1,2,4]triazin-5-yl)phenyl)-5,6-dimethyl-2-oxo-2H-[1,3′-bipyridine]-3-carboxamide]	≥ 8.30	≥ 8.30	< 7.00
Cc1c(-c2ccn(C)n2)cc(C(=O)Nc2ccc(-c3cc(C4CCN(C(=O)C(C)C)CC4)n4ncnc(N)c34)cc2)c(=O)n1-c1cccnc1 [Example 135, N-(4-(4-Amino-7-(1-isobutyrylpiperidin-4-yl)pyrrolo[2,1-f][1,2,4]triazin-5-yl)phenyl)-6-methyl-5-(1-methyl-1H-pyrazol-3-yl)-2-oxo-2H-[1,3′-bipyridine]-3-carboxamide]	≥ 8.30	≥ 8.30	< 7.00
COCc1c(Br)cc(C(=O)Nc2ccc(-c3cc(C4CCN(C(=O)C(C)C)CC4)n4ncnc(N)c34)cc2)c(=O)n1-c1ccccc1 [Example 136, N-(4-(4-Amino-7-(1-isobutyrylpiperidin-4-yl)pyrrolo[2,1-f][1,2,4]triazin-5-yl)phenyl)-5-bromo-6-(methoxymethyl)-2-oxo-1-phenyl-1,2-dihydropyridine-3-carboxamide]	≥ 8.30	≥ 8.30	< 7.00
CC(C)C(=O)N1CCC(c2cc(-c3ccc(NC(=O)c4cn(C5CC5)c(=O)n(-c5ccccc5)c4=O)cc3)c3c(N)ncnn23)CC1 [Example 139, N-(4-(4-Amino-7-(1-isobutyrylpiperidin-4-yl)pyrrolo[2,1-f][1,2,4]triazin-5-yl)phenyl)-1-cyclopropyl-2,4-dioxo-3-phenyl-1,2,3,4-tetrahydropyrimidine-5-carboxamide]	≥ 8.30	≥ 8.30	< 7.00
Cc1c(-c2ccccn2)c(=O)c(C(=O)Nc2ccc(-c3cc(C4CCN(C(=O)C(C)C)CC4)n4ncnc(N)c34)cc2)cn1C1CC1 [Example 141, N-(4-(4-Amino-7-(1-isobutyrylpiperidin-4-yl)pyrrolo[2,1-f][1,2,4]triazin-5-yl)phenyl)-1′-cyclopropyl-2′-methyl-4′-oxo-1′,4′-dihydro-[2,3′-bipyridine]-5′-carboxamide]	≥ 8.30	≥ 8.30	< 7.00
Cc1c(-c2cccnc2)c(=O)c(C(=O)Nc2ccc(-c3cc(C4CCN(C(=O)C(C)C)CC4)n4ncnc(N)c34)cc2)cn1C1CC1 [Example 147, N-(4-(4-Amino-7-(1-isobutyrylpiperidin-4-yl)pyrrolo[1,2-f][1,2,4]triazin-5-yl)phenyl)-1-cyclopropyl-6-methyl-4-oxo-5-(pyridin-3-yl)-1,4-dihydropyridine-3-carboxamide]	≥ 8.30	≥ 8.30	< 7.00
